Source: patent publication US7345050B2, “Pyrimidine compounds” (AstraZeneca AB, priority 2001, dated 2008)

Row | SMILES | melting point
1 | O=C(c1ccccc1)c1ccc(Nc2nccc(-c3cnc4ccccn34)n2)cc1 [Example 7, 2-(4-Benzoylanilino)-4-(imidazo-[1,2-a]-pyridin-3-yl)pyrimidine] | 249 to 255 °C (dec.)
2 | CCOc1cccc(C(=O)c2ccc(Nc3nccc(-c4cnc5ccccn45)n3)cc2)c1 [Example 6, 2-[4-(3-Ethoxybenzoyl)anilino]-4-(imidazo-[1,2-a]-pyridin-3-yl)pyrimidine] | 197.3 to 197.5 °C
3 | Cc1ccc(C(=O)c2ccc(Nc3nccc(-c4cnc5ccccn45)n3)cc2)cc1 [Example 3, 2-[4-(4-Methylbenzoyl)anilino)-4-(imidazo-[1,2-a]-pyridin-3-yl)pyrimidine] | 238.9 to 239.2 °C
4 | O=C(c1ccc(Nc2nccc(-c3cnc4ccccn34)n2)cc1)c1ccc(N2CCOCC2)cc1 [Example 1, 2-[4-(4-Morpholinobenzoyl)anilino]-4-(imidazo-[1,2-a]-pyridin-3-yl)pyrimidine] | > 237 °C (dec.)
5 | O=C(c1ccc(Nc2nccc(-c3cnc4ccccn34)n2)cc1)c1cccc(Cl)c1 [Example 5, 2-[4-(3-Chlorobenzoyl)anilino]-4-(imidazo-[1,2-a)-pyridin-3-yl)pyrimidine] | 194.7 to 196.7 °C
6 | N#Cc1ccc(C(=O)c2ccc(Nc3nccc(-c4cnc5ccccn45)n3)cc2)cc1 [Example 4, 2-[4-(4-Cyanobenzoyl)anilino]-4-(imidazo-[1,2-a]-pyridin-3-yl)pyrimidine] | > 230 °C (dec.)

The remaining lines, values ahead:

Row | melting point | SMILES
7 | 234 to 235 °C (dec.) | O=C(c1ccc(Nc2nccc(-c3cnc4ccccn34)n2)cc1)c1nccs1 [Example 13, 2-[4-(1,3-Thiazol-2-ylcarbonyl)anilino]-4-(imidazo-[1,2-a]-pyridin-3-yl)pyrimidine]
8 | 237 to 246 °C (dec.) | O=C(c1ccccc1)c1cccc(Nc2nccc(-c3cnc4ccccn34)n2)c1 [Example 10, 2-(3-Benzoylanilino)-4-(imidazo-[1,2-a]-pyridin-3-yl)pyrimidine]
9 | 213 to 216 °C | OC(c1ccccc1)c1ccc(Nc2nccc(-c3cnc4ccccn34)n2)cc1 (racemic) [Example 8, (±)-2-[4-(Hydroxyphenylmethyl)anilino]-4-(imidazo-[1,2-a]-pyridin-3-yl)pyrimidine]
10 | 173 to 178 °C (dec.) | O=C(c1ccc(Nc2nccc(-c3cnc4ccccn34)n2)cc1)c1ccc2cc[nH]c2c1 [Example 11, 2-[4-(1 H-Indol-6-ylcarbonyl)anilino]-4-(imidazo-[1,2-a]-pyridin-3-yl)pyrimidine]
11 | 225 to 228 °C (dec.) | O=C(Cc1ccccc1)c1ccc(Nc2nccc(-c3cnc4ccccn34)n2)cc1 [Example 9, 2-[4-(1-Oxo-2-phenylethyl)anilino]-4-(imidazo-[1,2-a]-pyridin-3-yl)pyrimidine]
